The results in this text go back to paper PMC6066988 (Frontiers in Microbiology, 2018).

By IC50 is commonly meant the concentration that inhibits the measured activity by half. Low values mean inhibition by little substance, high ones a need for much substance.

Like-named read-outs stand apart in the source and are kept apart here.

In experiment [1] the target is T1, DNA topoisomerase I (MtbTopoI) (Mycobacterium tuberculosis, UniProt P9WG49).
T1 construct: gene topA
The experiment is classed as biochemical.

In experiment [2] the target is T1, DNA topoisomerase I (MtbTopoI). Description: […]; also inhibits cleavage of a 32-mer single-stranded DNA. It is filed as biochemical.

T1 sequence (P9WG49 whole entry): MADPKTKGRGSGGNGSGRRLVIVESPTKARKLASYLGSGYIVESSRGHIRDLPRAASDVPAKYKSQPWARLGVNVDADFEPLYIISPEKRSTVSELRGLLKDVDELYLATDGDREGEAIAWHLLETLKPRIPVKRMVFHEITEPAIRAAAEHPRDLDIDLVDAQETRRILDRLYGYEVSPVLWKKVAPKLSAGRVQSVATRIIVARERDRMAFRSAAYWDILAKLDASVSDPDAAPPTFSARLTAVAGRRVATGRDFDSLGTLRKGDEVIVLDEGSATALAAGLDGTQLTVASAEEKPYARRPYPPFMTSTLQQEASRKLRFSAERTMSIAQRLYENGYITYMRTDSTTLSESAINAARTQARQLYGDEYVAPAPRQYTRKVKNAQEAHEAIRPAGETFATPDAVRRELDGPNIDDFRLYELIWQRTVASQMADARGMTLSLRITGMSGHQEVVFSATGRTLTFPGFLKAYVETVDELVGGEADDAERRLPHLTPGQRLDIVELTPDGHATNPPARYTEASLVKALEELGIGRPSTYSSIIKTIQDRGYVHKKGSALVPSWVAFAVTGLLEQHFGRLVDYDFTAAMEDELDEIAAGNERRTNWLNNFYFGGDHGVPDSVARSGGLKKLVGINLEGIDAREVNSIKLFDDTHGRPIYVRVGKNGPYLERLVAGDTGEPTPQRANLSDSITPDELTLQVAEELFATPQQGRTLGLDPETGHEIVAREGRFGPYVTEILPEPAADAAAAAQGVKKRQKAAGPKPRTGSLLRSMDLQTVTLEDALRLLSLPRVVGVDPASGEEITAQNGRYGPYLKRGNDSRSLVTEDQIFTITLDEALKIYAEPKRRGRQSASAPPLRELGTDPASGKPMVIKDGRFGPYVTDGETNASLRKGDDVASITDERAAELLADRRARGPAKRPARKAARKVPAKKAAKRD

For `CN(C)CCc1cc2c(c3c1ccc1cc4c(cc13)OCO4)OCO2` [N-SCN, N-methyl-seconeolitsine], the IC50 in experiment [1] is 5.6 ± 0.8 µM.
In the case of `CNCCc1cc2c(c3c1ccc1cc4c(cc13)OCO4)OCO2` [SCN, seconeolitsine], half-maximal inhibition in experiment [2] (IC50) was put at 8.4 ± 0.3 µM.
